Measured values from paper PMC10564794, “Safety and tolerability of oral vorolanib for neovascular (wet) age-related macular degeneration: a phase I, open-label study” (Eye, 2023).
“Also recorded” adds a separate entry of the source.

Experiments:
[1] = test system: participants with nAMD; assay: Phase I safety and tolerability of oral vorolanib (adverse events, DLT, MTD); type: in vivo; settings: for Dose-limiting toxicities (DLT): dose escalation
Experimental: This phase I, open-label study consisting of dose escalation and dose expansion was conducted at 6 Chinese sites (NCT02452385 and CTR20150152). This study was approved by the local institutional review board at each participating site and conducted in accordance with the Declaration of Helsinki. All participants provided written informed consent.
The schedule of procedures is shown in Table S1 in the Supplementary Material. In the dose escalation, participants in each group were assigned to receive ascending doses of vorolanib (25, 50, 75 and 100 mg daily). The dose escalated to the next level in the absence of more than two of eight patients with dose-limiting toxicity (DLT), which was defined as a drug-related safety event during the first cycle (30 days) of treatment that was severe enough to require removal of the participant from the study. The maximum tolerated dose (MTD) was defined as the maximum dose at which no more than two of eight DLTs occurred in the group.
AEs were determined by the investigator per the Common Terminology Criteria for Adverse Events version 4.0.

[2] = test system: CNV rat model; parameters: method as in PMID 29201457; settings: oral administration; cited from earlier work
[3] = test system: participants with advanced cancer; parameters: method as in PMID 33707933; settings: US participants with advanced cancer, once daily; cited from earlier work
[4] = Pharmacokinetics of vorolanib after single and multiple dosing; type: in vivo, human
Experimental: In the initial PK evaluation after a single dose, blood samples from participants in the 25 mg group were collected predose (−0.5 h) and at 0.5, 1, 2, 3, 4, 6, 8, 12, 16, 24, 36, and 48 h post-dose; blood samples from participants in the 50 mg and 75 mg groups were collected predose (−0.5 h) and at 0.5, 1, 2, 3, 4, 6, 8, 12, 16, 24, 36, 48, and 72 h post-dose. During continuous dosing, blood in the 50 mg group was obtained on Day 7, Day 14 and Day 21 predose and on Day 30 predose and at 0.5, 1, 2, 3, 4, 6, 8, 12, 16 and 24 h post-dose, while blood in the 75 mg group was obtained on Day 7, Day 14 and Day 21 predose and on Day 30 predose and at 0.5, 1, 2, 3, 4, 6, 8, 12, 16, 24, 36, 48, and 72 h post-dose. The multiple dose data for 25 mg were not collected.
All participants moved from single dosing to multiple daily dosing.

[5] = continuous dose administration, 50 to 75 mg

## Cc1[nH]c(/C=C2\C(=O)Nc3ccc(F)cc32)c(C)c1C(=O)N[C@H]1CCN(C(=O)N(C)C)C1 [vorolanib, Vorolanib]
[1]; 25 mg, N = 16
  TRAE: Elevated ALT: 3 (18.8%) number of participants (%)
  TRAE: Elevated AST: 3 (18.8%) number of participants (%)
  TRAE: Elevated blood pressure: 4 (25.0%) number of participants (%)
  TRAE: Hair colour changes: 0 number of participants (%)
  TRAE: Leucopenia: 1 (6.3%) number of participants (%)
  TRAE: Neutropenia: 1 (6.3%) number of participants (%)
  TRAE: QT interval prolongation: 2 (12.5%) number of participants (%)
  TRAE: Thrombocytopenia: 2 (12.5%) number of participants (%)
[1]; 50 mg, N = 16
  TRAE: Elevated ALT: 9 (56.3%) number of participants (%)
  TRAE: Elevated AST: 8 (50.0%) number of participants (%)
  TRAE: Elevated blood pressure: 6 (37.5%) number of participants (%)
  TRAE: Hair colour changes: 4 (25.0%) number of participants (%)
  TRAE: Leucopenia: 3 (18.8%) number of participants (%)
  TRAE: Neutropenia: 3 (18.8%) number of participants (%)
  TRAE: QT interval prolongation: 4 (25.0%) number of participants (%)
  TRAE: Thrombocytopenia: 1 (6.3%) number of participants (%)
[1]; 75 mg cohort
  Dose-limiting toxicities (DLT): one
[1]; 75 mg, N = 8
  TRAE: Elevated ALT: 5 (62.5%) number of participants (%)
  TRAE: Elevated AST: 4 (50.0%) number of participants (%)
  TRAE: Elevated blood pressure: 3 (37.5%) number of participants (%)
  TRAE: Hair colour changes: 2 (25.0%) number of participants (%)
  TRAE: Leucopenia: 3 (37.5%) number of participants (%)
  TRAE: Neutropenia: 2 (25.0%) number of participants (%)
  TRAE: QT interval prolongation: 1 (12.5%) number of participants (%)
  TRAE: Thrombocytopenia: 3 (37.5%) number of participants (%)
[1]; 100 mg cohort
  Dose-limiting toxicities (DLT): one
[1]; 100 mg, N = 1
  TRAE: Elevated blood pressure: 0 number of participants (%)
  TRAE: Hair colour changes: 0 number of participants (%)
  TRAE: Leucopenia: 0 number of participants (%)
  TRAE: Neutropenia: 0 number of participants (%)
  TRAE: QT interval prolongation: 0 number of participants (%)
  TRAE: Thrombocytopenia: 0 number of participants (%)
[1]; 6 of 41 participants
  Drug-related AEs leading to drug discontinuation: 14.6%
[1]; all cohorts
  Fatal TRAEs: No fatal TRAEs
  Ocular TRAEs: no ocular TRAEs occurred
[1]; all cohorts, N = 41
  Participants with at least one AE: 39 (95.1%) participants (%)
  Participants with grade 3 or higher TRAEs: 12 (29.3%) participants (%)
  Participants with treatment-related adverse events (TRAEs): 33 (80.5%) participants (%)
[1]; all participants
  Elevated alanine aminotransferase (most common nonocular TRAE): 41.5%
[1]; dose escalation 25–100 mg daily
  Dose-limiting toxicities (DLTs), total: two
[1]; oral 25–100 mg daily
  Maximum tolerated dose: not reached
[2]
  CNV lesion area and pathological neovascularization: strongly repressed CNV; also recorded: reduced the CNV lesion area and pathological neovascularization
[3]
  Recommended dose of vorolanib monotherapy: 400 mg
[4]; [5]
  Accumulation: no obvious accumulation
  Time to steady-state concentration: 4 days
[4]; doses of 25–50 mg after a single dose
  Dose dependence of maximum blood concentration and area under the curve: increased linearly in a dose-dependent manner
[4]; human, plasma, oral, 25 mg, single dose 25 mg, n = 8, arithmetic mean (%CV)
  half-life: 5.9 h
[4]; human, plasma, oral, 25 mg, single dose 25 mg, n = 8, arithmetic mean (%CV), read-out: Cmax
  Cmax: 140 ng/mL
[4]; human, plasma, oral, 25 mg, single dose 25 mg, n = 8, median (range), read-out: Tmax
  Tmax: 3.03 h
[4]; human, plasma, oral, 50 mg, multiple doses 50 mg daily, n = 8, arithmetic mean (%CV)
  half-life: 4.9 h
